Data set [1] concerns Endo/exonuclease in Pneumocystis carinii. To be noted: cited from earlier work.
The subject of a further data set is human endo-exonuclease. The data set is described as follows: Endo-exonuclease inhibition assay (digestion of circular plasmid DNA, agarose gel). The format is biochemical. The method, then:
The human endo-exonuclease was isolated according to the method described by Liu and Chow et al (1995). The cultured cells were detached with trypsin-EDTA and the cell suspensions were centrifuged at 4° C. with a force of 700 g for 10 minutes. The cell pellets were washed twice with cold phosphate buffered saline (PBS). The cells were then resuspended and sonicated in 20 mM Tris-HCl, pH 7.5, containing 5 mM EDTA and 1 mM PMSF (buffer A). The resulting cell lysis suspensions were centrifuged at 4° C. at 10,000 g for 15 min. The supernatants were then loaded onto an antibody-protein A-Sepharose affinity column, as previously described by Chow and Resnick (1987). After washing extensively with buffer A (i.e. until the A280 of the eluates were zero), the column was then eluted with buffer A containing 3.5 M MgCl2 to elute the endo-exonuclease. The eluted endo-exonuclease was dialyzed extensively against buffer A with at least two changes of buffer and one change of distilled water. The endo-exonuclease was then concentrated by lyophilization.
The endo-exonuclease activities were determined by measuring the digestion of circular plasmid DNA following the exemplary set of steps. Superhelical pBR322 DNA (or YEp DNA) was treated with endo-exonuclease at 37° C. Reactions were stopped by the addition of a solution containing 5 mM EDTA, 1% SDS, 30% glycerol, and bromophenol blue. The resulting mixtures were then loaded onto a 0.7% agarose gel and electrophoresed for 3 hours at 70 V. The gels were stained with 100 ml of 0.5 μg/ml ethidium bromide solution. Endo-exonuclease activities were measured as the rate of conversion from RFI to RFII to RFIII and subsequent fragments.
For the inhibition assay, pentamidine, mono-amidine compounds according to the present teachings and di-amidine compounds according to the present teachings were added to the endo-exonuclease prior to the start of the nuclease reaction. In order to arrive at the measurements related to the % of cell growth of H661, the MTT assay as described above was performed. The resulting endo-exonuclease inhibition is shown in the Table 1 and Table 2 that follow: […]

The subject of the next data set is Lewis Lung cancer cells. Description: Lewis Lung cancer secondary lung tumours in mice after removal of the primary tumour. The format is in vivo. The note with it: treated after surgical removal of primary tumour. The method, then: Lewis Lung cancer cells are injected subcutaneously into standard laboratory mice […]. Thereafter, they rapidly formed solid tumours. The sizes of the tumours can be measured. Although the injected cells are derived from lung cancers, the tumours actually grow in the back of the mice. All animals were inoculated at the same site. Primary tumours were allowed to grow until they were 0.5-1.0 cm^3 in size. At this point, cells from the tumours start circulating in the blood streams of the mice. These circulating cells have the capacity to form secondary tumours in the lung. The primary tumours are removed surgically from the mice. The mice are then treated with the amidine compounds so as to try and control the growth of secondary tumours. The extent to which control has been achieved is measured by sacrificing the mice and by physically counting the new tumours that can be seen growing on the surfaces of the lungs.

For data set [2], the system named is H460 Lung Carcinoma Cell Line. Description: MTT assay on H460 Lung Carcinoma Cell Line. The format is cell-based. The text has this: (§1) Cell Survival—MTT assay: The MTT (3-[4,5-Dimethylthiazol-2-yl]-2,5 diphenyl tertrazolim bromide) method of determining cell growth/cytotoxicity is used to determine cell survival. MIT is a tetrazolium salt cleaved by mitochondrial dehydrogenases of living cells. Cleavage converts yellow, water soluble MTT to an insoluble, purple formazan crystal. The crystals can be solubilized with a 50% N,N-dimethylformamide (vol/vol), 20% SDS (wt/vol) solution (pH4.7), and absorbance determined at a wavelength of 570 nm. Dead cells will not cleave MTT and uncleaved MTT is not detectable at this wavelength. The amount of MTT that is cleaved increases with increasing cell numbers, and decreases as a result of cell cytotoxicity (Niks and Otto 1990, Hussain et al. 1993). Cells were harvested from cell cultures using a standard protocol (i.e. Trypsin/EDTA). The cells (1000 to 5000 cells depending on cell type in 50 μl) were then plated and incubated overnight at 37° C. The compound (e.g. the compound of formula (I); compound of formula (II); pentamidine; or the vehicle) was introduced. After 2 days of incubation at 37° C., 10 μl of a 5 mg/ml solution of MTT was then added to all the experimental wells as well as the media control well. The plates were further incubated for 4 hours. MTT solubilization buffer (100 μl) was then added and the plates were incubated overnight at 37° C. The plates were then read on an ELISA plate reader with absorbance at 570 nm and a reference at 630 nm.
(§2) Iniparib, Veliparib and Olaparib were also subjected to the MTT assay without an endo-exonuclease compound as controls.
A general note: Tetrazolium assays rely on reduction of a dye to a coloured formazan, in cell work by metabolically active cells.

The test system of data set [3] is HT29 Colon Cancer Cell Line. The data set is described as follows: MTT assay on HT29 Colon Cancer Cell Line. The format is cell-based, human. The method, then:
(§3) Cell lines from human colon adenocarcinoma (HT29), human breast adenocarcinoma (MCF7) and human cervical epithelioid carcinoma (HeLa) were obtained from the American Type Culture Collection (ATCC) and have ATCC accession numbers HTB-38, HTB-22, and CCL-2 respectively. The normal primary cell, NHDF, was obtained from Dr. Shirley Lehnert. These cells are normal human skin fibroblasts. The cells were grown in RPMI media supplemented with 10% FCS at 37° C. in a humidified incubator with 5% CO2.
as §1, §2

Data set [4] concerns MCF7 Breast Cancer Cell Line. Description: MTT assay on MCF7 Breast Cancer Cell Line. The format is cell-based, human. The method, then:
as §3, §1, §2

Another data set has as its system H661 (Lung Cancer Cell). Description: MTT assay, cell growth of H661 lung cancer cell. The format is cell-based.
Description: as §1, with “4 hours. […] The plates” for “4 hours. MTT solubilization buffer (100 μl) was then added and the plates were incubated overnight at 37° C. The plates”, “630 nm. […]” for “630 nm.”

For data set [5] the following is noted: cited from earlier work.
Where [6] appears, read: Homo sapiens, NCI-H460, PARP inhibitor alone: Iniparib 42 μM, Veliparib 50 μM, Olaparib 73 μM.
Where [7] appears, read: Homo sapiens, HT-29, PARP inhibitor alone: Iniparib 42 μM, Veliparib 50 μM, Olaparib 73 μM.
The mark [8] stands for this setting: Homo sapiens, PARP inhibitor alone: Iniparib 42 μM, Veliparib 50 μM, Olaparib 73 μM.

SMILES strings stand for the structures.

Regarding `N=C(NC1CC1)c1ccc(-c2ccc(-c3ccc(C(=N)NC4CC4)cc3)o2)cc1` [2,5-bis [4-N-(cyclopropylguanyl)phenyl] furan], the “nuclease inhibition activity in P. carinii” value in data set [1] was “showed nuclease inhibition activity”.
Turning to `c1cc(-c2ccc(-c3ccc(C4=NCCCN4)cc3)o2)ccc1C1=NCCCN1` [2,5-bis-p[3,4,5,6-tetrahydropyrimidyl)phenyl]furan], in data set [1], the “nuclease inhibition activity in P. carinii” value is “showed nuclease inhibition activity”.
Take `CC(C)NC(=N)c1ccc(-c2ccc(-c3ccc(C(=N)NC(C)C)cc3)o2)cc1` [2,5-bis[4-(N-isopropylguanyl)phenyl]furan]: in data set [1], the “nuclease inhibition activity in P. carinii” value is “inhibits endo-exonuclease activity”.
As for `CC(C)CNC(=N)c1ccc(-c2ccc(-c3ccc(C(=N)NCC(C)C)cc3)o2)cc1` [2,5-bis[4-N-isobutylguanyl)phenyl]furan], in data set [1], the “nuclease inhibition activity in P. carinii” value was “showed nuclease inhibition activity”.
`N=C(NCC1CC1)c1ccc(-c2ccc(-c3ccc(C(=N)NCC4CC4)cc3)o2)cc1` [2,5-bis[4-[(N-cyclopropylmethylguanyl)phenyl]furan]: the “nuclease inhibition activity in P. carinii” value in data set [1] was “showed nuclease inhibition activity”.
As for `N=C(N)c1ccc(-c2ccc(-c3ccc(C(=N)N)cc3)o2)cc1` [2,5-bis[4-guanylphenyl]furan], the “nuclease inhibition activity in P. carinii” value in data set [1] is recorded as “showed nuclease inhibition activity”.
With `N=C(NC1CCC1)c1ccc(-c2ccc(-c3ccc(C(=N)NC4CCC4)cc3)o2)cc1` [2,5-bis[(4-N-cyclobutylgunayl)phenyl]furan], the “nuclease inhibition activity in P. carinii” value in data set [1] was “showed nuclease inhibition activity”.
Consider `N=C(NC1CCCC1)c1ccc(-c2ccc(-c3ccc(C(=N)NC4CCCC4)cc3)o2)cc1` [2,5-bis[(4-N-cyclopentylguanyl)phenyl]furan], for which the “nuclease inhibition activity in P. carinii” value in data set [1] is on record as “showed nuclease inhibition activity”.
As a reminder, the IC50 is the point on the concentration scale where inhibition reaches its midpoint. Higher therefore signals weaker potency in that assay. The term % Inhibition denotes the percentage by which the read-out fell short of the control. Lower therefore signals a response near the control. For the molecule `N=C(Nc1ccccc1)c1ccc(OCCCCCOc2ccc(C(=N)Nc3ccccc3)cc2)cc1` [Di-Amidine A], in the data set on human endo-exonuclease, the IC50 was 58 µM. For the same molecule, the “Lung Cysts remaining (% of Control)” value in the data set on Lewis Lung cancer cells is on record as 1.7 % of Control. The “% Inhibition” value in data set [2] (MTDX101 33 μM alone) was 25%; in data set [2] (MTDX101 336 μM alone) it was 85%; in data set [3] (MTDX101 33 μM alone), 15%; in data set [3] (MTDX101 336 μM alone) it was 64%; in data set [4] (MTDX101 33 μM alone) it was 20%; in data set [4] (MTDX101 336 μM alone), 80%.
In turn, `CC(C)NC(=N)c1ccc(OCCCCCOc2ccc(C(=N)NC(C)C)cc2)cc1` [Di-Amidine B] showed an IC50 in the data set with human endo-exonuclease of 14 µM. Further, in the data set on Lewis Lung cancer cells, the “Lung Cysts remaining (% of Control)” value was 0.22 % of Control.
In general, inhibition refers to the relative decrease from the control value, in per cent. Lower therefore signals a weak effect. Take `NC(=O)c1ccc(I)c([N+](=O)[O-])c1` [Iniparib]: the inhibition at 42 µM in data set [2] (setting [6]) is 0.8%; in data set [3] (setting [7]), 4.8%; in data set [4] (setting [8]), 5%.
With `O=C(c1cc(Cc2n[nH]c(=O)c3ccccc23)ccc1F)N1CCN(C(=O)C2CC2)CC1` [Olaparib], the figures for the inhibition at 73 µM in data set [2] (setting [6]), in data set [3] (setting [7]) and in data set [4] (setting [8]) were 11%, 14% and 17%, respectively.
In the data set on human endo-exonuclease, `N=C(N)c1ccc(OCCCCCOc2ccc(C(=N)N)cc2)cc1` [Pentamidine, pentamidine] showed an IC50 of 50 µM. Also, the “Endo-exonuclease Inhibition at 50 μM (%)” value in the data set on human endo-exonuclease (50 μM) is given as 50%. Also, the “H661 (Lung Cancer Cell) (% of Cell Growth at 2.5 μM)” value with H661 (Lung Cancer Cell) (2.5 μM, negative value = cell killing) is 20 ± 2%. Besides, the “death of the cancer cells (H661)” value in the data set with H661 (Lung Cancer Cell) (Table 1) is “Death of the cancer cells was not observed”. In addition, in the data set with Lewis Lung cancer cells, the “Lung Cysts remaining (% of Control)” value is listed as 4.5 % of Control. Besides, in data set [5] (4 mg/kg to 7 mg/kg for two days every two weeks), the safety for patients entry is recorded as “safe for patients”. Further, the “toxicity (known clinical data)” value in data set [5] (human, in vivo) is reported as “low toxicity”.
Regarding `C[C@]1(c2nc3c(C(N)=O)cccc3[nH]2)CCCN1` [Veliparib], the figures for the inhibition at 50 µM in data set [2] (setting [6]), in data set [3] (setting [7]) and in data set [4] (setting [8]) were 19%, 6% and 13%, respectively.

These data come from patent US12239617B2, “Mono- and di-amidine endo-exonuclease inhibitors and methods for inhibiting endo-exonuclease activity” (MONTDOREX INC., priority 2017, dated 2025).
